Results published in article PMC9833666, “Designing and identifying β-hairpin peptide macrocycles with antibiotic potential” (Science Advances, 2023).
Read-outs that look alike come from different tables or passages of the source. Bridge positions count the residues as written; N and C are the ends. Ends that are not written are not given here. Peptide text beside a SMILES is read from it.

Columns and labels:
[1] = tested on: Acinetobacter baumannii AB5075; settings: for AB5075 MIC FBS: 100% fetal bovine serum; for AB5075 MIC MH: Mueller-Hinton
Description: MICs were performed by a modifiedClinical and Laboratory Standards Institute) procedure. […] Separately, E. coli W3110 or A. baumannii AB5075 was grown overnight in 5 ml of standard MH at 37°C. Cells from these cultures were diluted to a concentration of 5 × 10^5 to 6 × 10^5 cells/ml in either standard MH, MHII, RPMI, or fetal bovine serum, and 90 μl was added to each well of the 96-well plate containing diluted peptide. Plates were wrapped twice in parafilm and incubated at 37°C for 18 to 24 hours. Wells were examined by eye against wells with no bacteria for signs of growth. MICs were reported as the minimum concentration with no observable growth. In cases where triplicate samples differed, the concentration supported by the median of the three replicates was reported. […]
For consistency, all SynCH peptides were resuspended at 10 mg/ml in water. Peptides were then visually inspected for any lack of solubility (Data File S1). […]
We had this library commercially synthesized and tested its ability to inhibit the growth of Acinetobacter baumannii AB5075, a clinically isolated Carbapenem Resistant Acinetobacter (CRA) pathogen. MICs were performed in MH as well as 100% FBS, which is likely more representative of the in vivo environment. […]

[2] = tested on: Single-donor human red blood cells; assay: Hemolysis assay; format: cell-based
Description: Single-donor human red blood cells (Innovative Research, no. IWB3ALS) were washed in PBS and adjusted to a concentration of 1 × 10^9 cells/ml. Each peptide was added individually to 200 μl of cells at a concentration of either 300 μg/ml (SySA library) or 128 μg/ml (SySA-5 optimization library) in a 96-well polypropylene plate (Corning, 3879). PBS alone and 1% Triton X-100 were used for background normalization and 100% hemolysis, respectively. Each reaction was set up in triplicate. Plates were incubated for 3 hours at 37°C. Following incubation, samples were centrifuged at 800g for 20 min, and 100 μl of supernatant was transferred to a flat-bottom 96-well plate (Genesse, 25-104). Percent hemolysis for each sample was determined by normalizing the absorbance at 540 nm for each sample to the average background and dividing by the average absorbance for 1% Triton X-100 (100% hemolysis). Error bars represent 1 SD of triplicate samples.

Escherichia coli W3110 = format: cell-based; settings: for Ec W3110 MIC MH: E. coli W3110, MH medium; for Ec W3110 MIC RPMI: E. coli W3110, RPMI medium; for W3110 MIC: SyPA peptides, MH

Compound	Ec W3110 MIC MH (Escherichia coli W3110) [mg/L]	Ec W3110 MIC RPMI (Escherichia coli W3110) [mg/L]	hemolysis [2] [%]	further results
CC(C)C[C@@H]1NC(=O)[C@H](CCCNC(=N)N)NC(=O)[C@@H]2CSSC[C@H](NC(=O)[C@H](CCCNC(=N)N)NC(=O)[C@H](C(C)C)NC(=O)[C@H](CCCNC(=N)N)NC(=O)[C@@H](N)CSSC[C@@H](C(=O)O)NC(=O)[C@H](CCCNC(=N)N)NC1=O)C(=O)N[C@@H](CCCNC(=N)N)C(=O)N[C@@H](CCCNC(=N)N)C(=O)N[C@@H](CCCNC(=N)N)C(=O)N[C@@H](CCCNC(=N)N)C(=O)N[C@@H](CCCNC(=N)N)C(=O)N[C@@H](CCCCN)C(=O)N2 [SySA-5.27] (H-CRVRCRRRRRKCRLRC-OH; disulfide 1-16, 5-12 (inferred); N-terminus and C-terminus assumed)	–	–	–	AB5075 MIC FBS ([1]; replicate 1): >128 mg/L; AB5075 MIC FBS ([1]; replicate 2): >128 mg/L; AB5075 MIC FBS ([1]; replicate 3): >128 mg/L; AB5075 MIC MH ([1]; replicate 1): 128 mg/L; AB5075 MIC MH ([1]; replicate 2): 128 mg/L; AB5075 MIC MH ([1]; replicate 3): 128 mg/L; Fold Change Hemolysis ([2]; hemolysis at 128 µg/ml, fold change relative to SySA-5): 0.6
CLRVRVDNGGSRLKITLEVC (disulfide 1-20 (inferred)) [SySA-75]	> 256	> 256	2.18	–
CRIKVDINNRSGRVKLQVQC (disulfide 1-20 (inferred)) [SySA-20]	> 256	> 256	0.42	–
CC[C@H](C)[C@@H]1NC(=O)[C@H](CCCNC(=N)N)NC(=O)[C@H](C(C)C)NC(=O)[C@@H](N)CSSC[C@@H](C(=O)O)NC(=O)[C@H](C(C)C)NC(=O)[C@H](CCC(N)=O)NC(=O)[C@H](C(C)C)NC(=O)[C@H](CO)NC(=O)[C@H](C(C)C)NC(=O)[C@H](CCCNC(=N)N)NC(=O)[C@H](C(C)C)NC(=O)[C@H](CCCNC(=N)N)NC(=O)[C@H](CCCNC(=N)N)NC(=O)[C@H](CCCNC(=N)N)NC(=O)[C@H](CCCNC(=N)N)NC(=O)[C@H](CC(N)=O)NC(=O)[C@H](CC(N)=O)NC(=O)[C@H](CC(C)C)NC(=O)[C@H](CCCNC(=N)N)NC1=O [SyPA-6] (H-CVRIRLNNRRRRVRVSVQVC-OH; disulfide 1-20)	–	–	–	W3110 MIC (Escherichia coli W3110; replicate 1): 32 mg/L; W3110 MIC (Escherichia coli W3110; replicate 2): 32 mg/L; W3110 MIC (Escherichia coli W3110; replicate 3): 32 mg/L; %Hemo ([2]; SyPA peptides, human red blood cells, 3 h 37°C, relative to 1% Triton X-100, peptide concentration not stated for SyPA, n=3): 0.90%
CRIRIDVNNGSGRLKLQLEC (disulfide 1-20 (inferred)) [SySA-21]	> 256	> 256	0.42	–
CLRIRVNNRGSGLRISVEVC (disulfide 1-20 (inferred)) [SySA-22]	> 256	> 256	0.48	–
CRIRIDIDNRGRTVRLEVQC (disulfide 1-20 (inferred)) [SySA-28]	> 256	> 256	0.0423	–
CRIRVNINNRRRTLRLEVEC (disulfide 1-20 (inferred)) [SySA-35]	> 256	> 256	0.12	–
CRVRIDIDNRSRTLKLEVQC (disulfide 1-20 (inferred)) [SySA-64]	> 256	> 256	0.70	–
CVRVRLDNRGGGLRISLEVC (disulfide 1-20 (inferred)) [SySA-2]	> 256	> 256	0.57	–
CRIRINIDNRSGTVRLEVQC (disulfide 1-20 (inferred)) [SySA-3]	> 256	> 256	0.24	–
CLRIRVDNRGSGVKVTLEVC (disulfide 1-20 (inferred)) [SySA-57]	> 256	> 256	0.25	–
CLTIRVDNRGSRVRITLEVC (disulfide 1-20 (inferred)) [SySA-70]	> 256	> 256	0.92	–
CLTVRLNNRGGGVKISVEVC (disulfide 1-20 (inferred)) [SySA-59]	> 256	> 256	0.32	–
CRIRINVNNRGRTLKLEVQC (disulfide 1-20 (inferred)) [SySA-10]	> 256	> 256	0.40	–
CRVRVNINNGSGRVKLELEC (disulfide 1-20 (inferred)) [SySA-19]	> 256	> 256	0.33	–
